Source: US20240261310A1, “APPLICATION OF ALGINATE OLIGOSACCHARIDES” (HAITANG (JIANGSU) BIOTECHNOLOGY COMPANY, LTD., priority 2021, published 2024)

Legend:
Type in all cases: in vivo
[1] = test system: rats with AKI induced by renal ischemia-reperfusion (I/R) injury; assay: Rat acute kidney injury (AKI) induced by ischemia-reperfusion (I/R); details: for level of serum creatinine / 24-hour urine output: Sprague Dawley rats, intragastric; for level of serum creatinine: 24 h after I/R; for mRNA levels of Kim-1 and NGAL in kidney tissues / inflammatory factors in kidney tissues (TLR4, p-NFκB/NFκB, pro-IL-1β/IL-1β): renal cortex; for mRNA levels of Kim-1 and NGAL in kidney tissues: 0.1 g/kg/day intragastric; for inflammatory factors in kidney tissues (TLR4, p-NFκB/NFκB, pro-IL-1β/IL-1β): western blotting, doses 0.01, 0.05, 0.1 g/kg/day, dose dependent
Description: Ischemia-reperfusion induced kidney injury is a classical animal model that simulates the acute kidney injury caused by clinical hypoperfusion. With the rat ischemia-reperfusion model, the author of the invention administered the alginate oligosaccharides with a uniform degree of polymerization as prepared by Example 1-3 and a mixture thereof, and then carried out comparison with a blank group and a non-administrated model group to investigate the therapeutic effects of the several alginate oligosaccharides with a uniform degree of polymerization.
30 male Sprague Dawley rats (purchased from the Laboratory Animal Center of Sun Yat-sen University) of 220-250 grams were selected. Before treatment, the 24-hour urine output was collected and measured without abnormalities. The rats to be modeled were randomly divided into the following groups: a sham group, a model group, and three alginate disaccharide groups with the doses of 0.01 g/kg/day, 0.05 g/kg/day and 0.1 g/kg/day respectively (6 rats in each group). In the present invention, the alginate disaccharide is abbreviated as “AOS2”. Intragastric administration was adopted, and rats in the model group and the sham group were all fed by gavage with the same volume of normal saline. On the day of operation, the rats were anesthetized intraperitoneally with 3% pentobarbital sodium and subjected to routine skin disinfection. The abdomen was sectioned to expose the left and right kidneys. In the sham group, the kidneys were only examined, and then the incision was sutured layer by layer to end the operation. In the model group and the modeled administration group, large bulldog clamps were used for occlusion of the renal pedicles on both sides, then the kidneys were recovered in place, and the incision was covered with gauze and dropwise added with a small amount of normal saline for rehydration. After 45 minutes, the bulldog clamps on both sides were released, and the incision was sutured layer by layer to end the operation. After operation, the rats were placed on a heating pad at 37° C. to wait for resuscitation, and then placed back into metabolic cages, in which the weight, food intake, water intake and urine output of the rats were measured. The rats were routinely fed after operation and sacrificed 24 hours later for sampling. […] Then, the serum creatinine in the rats was determined by using the creatinine assay kit from Nanjing Jiancheng, with the results shown in FIG. 10. During sampling, the kidneys on both sides were isolated, the cortex and inner medulla of each kidney were isolated, and the cortex was stored in trizol. When in use, mRNAs in the cortex were extracted using the trizol method, and the mRNA expressions of AKI biomarkers (KIM-1 and NGAL) were detected. A tissue lysis buffer was added to homogenize the kidneys by ultrasound, the total protein was then extracted, and the inflammatory factors (p-NFκB/NFκB and pro-IL-1β/IL-1β) in the renal cortex tissues were detected by western blotting. The experimental data were statistically analyzed by one-way ANOVA.
With the same experimental method as that for the alginate disaccharides, the effect of alginate trisaccharides against the rat acute kidney injury induced by ischemia-reperfusion was investigated. In the present invention, the alginate trisaccharide is abbreviated as “AOS3”. The serum creatinine in the rats was determined by using the creatinine assay kit from Nanjing Jiancheng, with the results shown in FIG. 14. During sampling, the kidneys on both sides were isolated, the cortex and inner medulla of each kidney were isolated, and the cortex was stored in trizol. When in use, mRNAs in the cortex were extracted using the trizol method, and the mRNA expression of AKI biomarkers (KIM-1 and NGAL) was detected. […]

[2] = test system: mice with AKI induced by cisplatin; assay: Mouse acute kidney injury induced by cisplatin
Description: Cisplatin-induced kidney injury is a classical and standard animal model that simulates the acute kidney injury induced by drugs that cause nephrotoxicity. With the mouse cisplatin model, we administered the alginate oligosaccharides with different uniform degrees of polymerization and a mixture thereof, and then compared with a blank group and a non-administrated model group to investigate the therapeutic effects of the individual alginate oligosaccharides with a uniform degree of polymerization.
30 male C57BL/J6 mice of 22-28 grams were selected. Before treatment, the 24-hour urine output was collected and measured without abnormalities. The mice to be modeled were randomly divided into the following groups: a control group, a model group, a model+low-dose administration group (AOS3 at 0.05 g/kg/day), a model+medium-dose administration group (AOS3 at 0.1 g/kg/day), and a model+high-dose administration group (AOS3 at 0.2 g/kg/day), with 6 mice in each group. The alginate trisaccharides was intragastrically administered, and the model group and the control group were all fed by gavage with the same volume of normal saline. Cisplatin was used to induce the drug toxin-associated acute kidney injury. During modeling, each model group was intraperitoneally injected with cisplatin at 20 mg/kg, and the control group was intraperitoneally injected with the same volume of normal saline. Immediately after modeling, the mice were put back into the mouse metabolic cages for observation, during which the weight, food intake, water intake and urine output of the mice were measured (see FIG. 37 for the results). The mice were sacrificed 72 hours later for sampling, and urine was collected. […] Then, the serum creatinine in the mice was determined by using the creatinine assay kit from Nanjing Jiancheng, with the results shown in FIG. 36. During sampling, the kidneys on both sides were isolated, the cortex and inner medulla of each kidney were isolated, and the cortex was stored in trizol. When in use, mRNAs in the cortex were extracted using the trizol method, and the mRNA expressions of AKI biomarkers (KIM-1 and NGAL, with the results shown in FIG. 38) were detected by the Qpcr method. A tissue lysis buffer was added to homogenize the kidneys by ultrasound, the total protein was then extracted, and the inflammatory factors (p-NFκB/NFκB and IL-1β) in the renal cortex tissues were detected by western blotting. The experimental data were statistically analyzed by one-way ANOVA.

[3] = test system: mice with AKI induced by endotoxin phosphorus lipopolysaccharides (LPS); assay: Mouse acute kidney injury induced by endotoxin phosphorus lipopolysaccharides (LPS); details: for level of serum creatinine: C57/B16 mice, LPS 15 mg/kg i.p., 24 h; for level of serum creatinine / gene expressions of inflammatory factors (IL-1β, IL-18, TNF-α, MCP-1) / mRNA levels of Kim-1 and NGAL in kidney tissues / protein expressions of renal inflammatory factors (TLR4, p-NFκB/NFκB, pro-IL-1β/IL-1β): 0.1 g/kg/day intragastric; for gene expressions of inflammatory factors (IL-1β, IL-18, TNF-α, MCP-1) / mRNA levels of Kim-1 and NGAL in kidney tissues / protein expressions of renal inflammatory factors (TLR4, p-NFκB/NFκB, pro-IL-1β/IL-1β): renal cortex, vs LPS group; for gene expressions of inflammatory factors (IL-1β, IL-18, TNF-α, MCP-1) / mRNA levels of Kim-1 and NGAL in kidney tissues: Qpcr; for protein expressions of renal inflammatory factors (TLR4, p-NFκB/NFκB, pro-IL-1β/IL-1β): western blotting
Description: The kidney injury induced by treatment with endotoxin phosphorus lipopolysaccharides is a classical and standard animal model that simulates the acute kidney injury induced by clinical infection. With the mouse endotoxin phosphorus lipopolysaccharide model, we administered the alginate oligosaccharides with different uniform degrees of polymerization and a mixture thereof, and then compared with a blank group and a non-administrated model group to investigate the therapeutic effects of the individual alginate oligosaccharides with a uniform degree of polymerization.
24 male C57/B16 mice of 22-28 grams were selected. […] LPS was used for modeling to induce the occurrence of sepsis-associated acute kidney injury. During modeling, each model group was intraperitoneally injected with LPS at 15 mg/kg, and the control group was intraperitoneally injected with the same volume of normal saline. Immediately after modeling, the mice were put back into the mouse metabolic cages for observation, in which the weight, food intake, water intake and urine output of the mice were measured. The mice were sacrificed 24 hours later for sampling, and urine was collected. […] Then, the serum creatinine in the mice was determined by using the creatinine assay kit from Nanjing Jiancheng, with the results shown in FIG. 23. During sampling, the kidneys on both sides were isolated, the cortex and inner medulla of each kidney were isolated, and the cortex was stored in trizol. When in use, mRNAs in the cortex were extracted using the trizol method, and the mRNA expressions of AKI biomarkers (KIM-1 and NGAL, with the results shown in FIG. 24) and inflammatory factors (IL-1β, IL-18, TNF-α, and MCP-1, with the results shown in FIG. 25) were detected by the Qpcr method. A tissue lysis buffer was added to homogenize the kidneys by ultrasound, the total protein was then extracted, and the inflammatory factors (p-NFκB/NFκB, pro-IL-1β/IL-1β) in the renal cortex tissues were detected by western blotting. The experimental data were statistically analyzed by one-way ANOVA.
The same experimental method was used as that for the alginate disaccharides. The serum creatinine in the mice was determined by using the creatinine assay kit from Nanjing Jiancheng, with the results shown in FIG. 27. During sampling, the kidneys on both sides were isolated, the cortex and inner medulla of each kidney were isolated, and the cortex was stored in trizol. When in use, mRNAs in the cortex were extracted using the trizol method, and the mRNA expressions of AKI biomarkers (KIM-1 and NGAL, with the results shown in FIG. 28) and inflammatory factors (IL-1β, IL-18, TNF-α, and MCP-1, with the results shown in FIG. 29) were detected by the Qpcr method. A tissue lysis buffer was added to homogenize the kidneys by ultrasound, the total protein was then extracted, and the inflammatory factors (p-NFκB/NFκB, pro-IL-IP/IL-1β) in the renal cortex tissues were detected by western blotting. In addition, the animals were sacrificed after the last blood collection, the kidneys were fixed in 4% formaldehyde solution, and subjected to conventional paraffin embedding, sectioning, and HE staining to observe the general kidney tissue morphology under a light microscope. The experimental data were statistically analyzed by one-way ANOVA.
The same experimental method was used as that for the alginate disaccharides and alginate trisaccharides. […] The serum creatinine in the mice was determined by using the creatinine assay kit from Nanjing Jiancheng, with the results shown in FIG. 32. During sampling, the kidneys on both sides were isolated, the cortex and inner medulla of each kidney were isolated, and the cortex was stored in trizol.

[4] = three doses 0.01, 0.05, 0.1 g/kg/day, vs I/R model group
[5] = 0.1 g/kg/day, vs cisplatin model group

| Substance | level of serum creatinine ([1]; 0.1 g/kg/day) | level of serum creatinine [1, 4] | 24-hour urine output [1, 4] | mRNA levels of Kim-1 and NGAL in kidney tissues ([1]; vs I/R model group) | inflammatory factors in kidney tissues (TLR4, p-NFκB/NFκB, pro-IL-1β/IL-1β) [1] | expressions of inflammatory factors [2, 5] | level of serum creatinine [2, 5] | levels of kidney injury factors (KIM-1 and NGAL) [2, 5] | level of serum creatinine [3] | gene expressions of inflammatory factors (IL-1β, IL-18, TNF-α, MCP-1) [3] | mRNA levels of Kim-1 and NGAL in kidney tissues [3] | protein expressions of renal inflammatory factors (TLR4, p-NFκB/NFκB, pro-IL-1β/IL-1β) [3] | 24-hour urine output ([1]; 0.1 g/kg/day) | renal histopathological manifestations ([1]; HE staining, 0.1 g/kg/day) | level of serum creatinine ([2]; C57BL/J6 mice, cisplatin 20 mg/kg i.p., intragastric 0.05, 0.1, 0.2 g/kg/day, 72 h) | mRNA levels of Kim-1 and NGAL in kidney tissues ([2]; renal cortex, Qpcr, vs cisplatin model group) | protein expressions of renal inflammatory factors (TLR4, p-NFκB/NFκB, IL-1β) ([2]; renal cortex, western blotting, vs cisplatin model group) | urine output ([2]; three doses 0.05, 0.1, 0.2 g/kg/day, 24 h to 72 h, dose dependent) | renal histopathological manifestations ([3]; HE staining, LPS+AOS3 group) |
| --- | --- | --- | --- | --- | --- | --- | --- | --- | --- | --- | --- | --- | --- | --- | --- | --- | --- | --- | --- |
| alginate disaccharide sodium salt [AOS2] | basically return to a normal level | decreased significantly | decreased somewhat | significantly reduced the expressions of both markers | reduced the production of inflammatory factors | decreased significantly | decreased significantly | decreased significantly | decreased significantly and could basically return to a normal level | significantly reduced the production of inflammatory factors | significantly reduced | significantly reduced the production of the inflammatory factors | – | – | – | – | – | – | – |
| alginate tetrasaccharide sodium salt [AOS4] | restore to a normal level | decreased significantly | somewhat reduced | significantly reduce both markers | significantly reduce the production of inflammatory factors | decreased significantly | decreased significantly | decreased significantly | significantly reduced the serum creatinine | significantly reduced | significantly reduced | significantly inhibited the inflammatory responses of the kidneys | obviously better than that of the mixed saccharides | – | – | – | – | – | – |
| alginate trisaccharide sodium salt [AOS3] | basically return to a normal level | decreased significantly | somewhat decreased | significantly reduced the expressions of both markers | reduce the production of inflammatory factors | decreased significantly | decreased significantly | decreased significantly | decreased significantly and could basically return to a normal level | significantly reduced the production of inflammatory factors | significantly reduced | significantly reduced the production of the inflammatory factors | basically recovered to the normal level | the renal tubules showed mild lesions | decreased significantly and could basically return to a normal level | significantly reduced | significantly reduced the production of the inflammatory factors | first somewhat decreased and then became normal | the glomeruli and renal tubules showed mild lesions |
